Consider one compound from patent US20040132817A1, “Use of an histone deacetylase inhibitor for the treatment of diseases associated with an hpv infection” (priority 2001, published 2004).

In experiment [1] the test system is "1321" cells. Put plainly: Flow-cytometric cell cycle analysis of "1321" keratinocytes (HPV-16 E6/E7 under β-actin promoter). Format: cell-based, human. The settings on record: 6 mM sodium butyrate, 16 hours. An excerpt:
(B) Flow-cytometric analysis. Quantification of the proportion of cells in the cell cycle phases G1, S and G2/M (standard deviations are the mean of three independent experiments).
HPV18-positive cervical Carcinoma cells (HeLa) were maintained in Dulbecco's modified Eagle's medium (DMEM), supplemented with 10% fetal calf serum (Gibco BRL, Rockville, USA), 1% penicillin and streptomycin (Sigma, Deisenhofen, Deutschland). Primary human keratinocytes, immortalized by E6-, E7- and E6/E7-open reading frames carrying amphotroptic retroviruses were cultivated in “Keratinocyte Medium Kit” (Sigma). Human foreskin keratinocytes transformed with HPV-16 E6/E7 either under the control of a human β-actin promoter (,1321″) or under the control of the authentic upstream regulatory region HPV (,1637″) were a kind gift of Dr. R. Schlegel (Georgetown University, Washington, USA) (Münger et al., J. Virol. 63 (1989), 4414-4423; Villa & Schlegel, Virology 181 (1991), 374-377). […]
Cells were harvested by trypsinisation, washed twice with phosphate-buffered saline (PBS) and fixed overnight in 70% ethanol. […] Cell cycle analysis and quantification of flow cytometric data was performed according to Dean and Jett, J. Cell. […]

Experiment [2] concerns pRb. The experiment can be described thus: Western blot of pRb in HPV16 E6-, E7-, E6/E7-immortalized keratinocytes. The format is cell-based, human. The conditions noted are these: 6 mM sodium butyrate, 16 hours. As to the method: (§1) Western blot analysis of cellular extracts obtained from E6-, E7-, and E6/E7-Immortalized cells which were separated in 8% (pRb) and 12% SDS-PAGE gels. After electrotransfer, the filters were incubated with pRb, E2F-1, cyclin E and actin antibodies. […] Due to quantitative differences of pRb and cyclin E levels in E7- and E6/E7-positive cells, the filters were exposed for different times.
HPV18-positive cervical Carcinoma cells (HeLa) were maintained in Dulbecco's modified Eagle's medium (DMEM), supplemented with 10% fetal calf serum (Gibco BRL, Rockville, USA), 1% penicillin and streptomycin (Sigma, Deisenhofen, Deutschland). Primary human keratinocytes, immortalized by E6-, E7- and E6/E7-open reading frames carrying amphotroptic retroviruses were cultivated in “Keratinocyte Medium Kit” (Sigma). Human foreskin keratinocytes transformed with HPV-16 E6/E7 either under the control of a human β-actin promoter (,1321″) or under the control of the authentic upstream regulatory region HPV (,1637″) were a kind gift of Dr. R. Schlegel (Georgetown University, Washington, USA) (Münger et al., J. Virol. 63 (1989), 4414-4423; Villa & Schlegel, Virology 181 (1991), 374-377). Cells were grown in 3 parts of keratinocyte-serum free medium (K-SFM, GIBCO, BRL) and 1 part of DMEM containing 10% fetal calf serum (GIBCO, BRL) and 0.75% gentamycin, 0.25% penicillin/streptomycin, respectively
Cellular extracts were separated in 8-12% SDS PAGE gels and electrotransferred as described elsewhere (Finzer et al., Oncogene 19 (2000), 3235-3244; Soto et al., Oncogene 18 (1999), 3187-3198). The following antibodies were used: cyclin E (HE 12), cyclin D 1 (HD 11), cdk2 (M2), (D-12; Santa Cruz Biotechnology, Inc., Santa Cruz, USA), cdk4 (C-22), cdk6 (C-21), p27^KIP1 (C-19), (K25020), p45^SKP2 (N-19), HPV18-E7 (N-19) and E2F-1 (KH95) (Santa Cruz Biotechnology, Inc. Santa Cruz, USA), p21^CIP1 (C24420; Transduction Laboratories, Lexington, USA), pRB (NCL-RB; Novocastra, UK), p16^INK4 (15126E, Pharmingen, San Diego, USA) and HPV 16 E7 (ZYMED Lab. Inc., San Francisco, USA). […]
Background: Immunoblotting shows a protein as a band on a membrane.

The test system of experiment [3] is E2F-1. The experiment can be described thus: Western blot of E2F-1 in HPV16-immortalized keratinocytes. Format: cell-based. The settings on record: HPV16-immortalized human keratinocytes, 6 mM sodium butyrate, 16 hours. The procedure: as §1
HPV18-positive cervical Carcinoma cells (HeLa) were maintained in Dulbecco's modified Eagle's medium (DMEM), supplemented with 10% fetal calf serum (Gibco BRL, Rockville, USA), 1% penicillin and streptomycin (Sigma, Deisenhofen, Deutschland). Primary human keratinocytes, immortalized by E6-, E7- and E6/E7-open reading frames carrying amphotroptic retroviruses were cultivated in “Keratinocyte Medium Kit” (Sigma). Human foreskin keratinocytes transformed with HPV-16 E6/E7 either under the control of a human β-actin promoter (,1321″) or under the control of the authentic upstream regulatory region HPV (,1637″) were a kind gift of Dr. R. Schlegel (Georgetown University, Washington, USA) (Münger et al., J. Virol. 63 (1989), 4414-4423; Villa & Schlegel, Virology 181 (1991), 374-377). Cells were grown in 3 parts of keratinocyte-serum free medium (K-SFM, GIBCO, BRL) and 1 part of DMEM containing 10% fetal calf serum (GIBCO, BRL) and 0.75% gentamycin, 0.25% penicillin/streptomycin, respectively […]

Regarding `CCCC(=O)[O-].[Na+]` [sodium butyrate], in experiment [1] (untreated 31.5%), the “proportion of cells within S-phase” value amounted to 18.6%. In experiment [1] (untreated 54.2%), the “cells in G1” value came to 65.3%. Besides, the “pRb state in E6-containing keratinocytes” value in experiment [2] (HPV16 E6-immortalized keratinocytes) is given as “hypophosphorylated”. In addition, the “pRb level in E6/E7-immortalized keratinocytes” value in experiment [2] (HPV16 E6/E7-immortalized keratinocytes) was “again revealed pRb degradation”. Also, the “pRb level in E7-expressing keratinocytes” value in experiment [2] (HPV16 E7-immortalized keratinocytes) is “completely disappeared”. In experiment [3], the E2F-1 level entry is listed as “did not significantly vary”.
